Data from patent publication US6258815A, “Specific immunophilin ligands as antiasthmatics and immunosuppressants” (ASTA Medica Aktiengesellschaft, priority 1996, dated 2001).
Entries after “also recorded” stand apart in the source; their conditions may differ. One block for each molecule: values may come before it.

Experiments:
[1] = test system: CypB-CsA-calcineurin; assay: displacement of 3H-CsA from CypB-CsA-calcineurin (gel filtration of T cell homogenate); type: binding, human; conditions: Compound [10 μmol]; 3H-CsA (100 nmol)
Method: (§1) To study the interaction with this supermolecule from CsA-CypB or CsA-CypB-calcineurin, the compounds of the general formula I according to the invention were incubated with cell homogenate of a human T cell line containing ^3 H-CsA (100 nmol). After gel filtration on Superose 12, the radioactivity of the eluted fractions was measured and compared with the untreated control. The corresponding displacement of ^3 H-CsA from the supermolecules CypB-CsA and CypB-CsA-calcineurin by the compounds of the general formula I according to the invention is shown in Table 2: […]

[2] = test system: CypB-CsA; assay: displacement of 3H-CsA from CypB-CsA (gel filtration of T cell homogenate); type: binding, human; conditions: Compound [10 μmol]; 3H-CsA (100 nmol)
Method: as §1

[3] = biological target: human cyclophilin B (Homo sapiens, UniProt P23284); assay: PPlase test (inhibition of peptidyl-prolyl cis/trans-isomerase activity); type: biochemical; conditions: Compound [10 μmol], human CypB
Method: The compounds of the formula (I) according to the invention are distinguished by binding to immunophilins and inhibit their isomerase activity. This prolyl isomerase activity is assayed by an enzyme test conventionally used throughout the world: G. Fischer, H. Bang, A. Schellenberger, Biochim. Biophys. Acta, 791, 87-97, 1984; D. H. Rich et al., J. Med. Chem. 38, 4164-4170, 1995.
[…] This PPlase activity is assayed by an enzyme test conventionally used throughout the world: G. Fischer, H. Bang, C. Mech, Biomed. Biochim. Acta, 43, 1101-1111; G. Fischer, R. Bang, A. Schellenberger, Biochim. Biophys. Acta, 791, 87-97, 1984; D. H. Rich et al., J. Med. Chem. 38, 4164-4170, 1995.
The compounds of the general formula I according to the invention are preincubated together with 10 nmol of CypB for 15 min at 4° C. The enzyme reaction is started after the addition of chymotrypsin and HEPES buffer with the test peptide Suc-Ala-Ala-Pro-Phe-Nan. The change in extinction at 390 nm is then monitored and evaluated. The change in extinction determined by photometry results from two partial reactions: a) the rapid chymotryptic cleavage of the trans-peptide; and b) the […] cis/trans isomerization catalysed by cyclophilins.

[4] = test system: T cells stimulated with OKT-3; assay: IL-2 proliferation test (3H-thymidine incorporation into T cells stimulated with OKT-3); type: cell-based; conditions: Homo sapiens, T-cell; Compound [10 μmol]; 45 h incubation, OKT-3 1 μg/ml; read-out: CD3-induced inhibition of proliferation in [%]
Method: The IL-2 proliferation test is based on the incorporation of ^3 H-thymidine into T cells stimulated with OKT-3 (human anti-CD3 antibodies) and is performed as follows:
100,000 T cells are inoculated into 150 μl of culture medium per well in microtitre plates, stimulated by the addition of OKT-3 (1 μg/ml) and incubated for 45 h with each of the compounds of the general formula I according to the invention. After this incubation period, 10 μl of the ^3 H-thymidine solution (0.5 μCi) are pipetted into each well. Incubation is then carried out for 6 h at 37° C. in a 5% CO2 atmosphere. After the cells have been harvested, the radioactivity is quantified in a β-counter. The corresponding CD3-induced inhibition of proliferation by the compounds of the general formula I according to the invention is shown in Table 3: […]

[5] = test system: cytokines, like IL-2, IL-4 and IL-5; conditions: animal experiments; reference substances; cited from earlier work
[6] = test system: IL-2 gene transcription in T cells; conditions: cited from earlier work
[7] = test system: FKBP; conditions: cited from earlier work

Chain of human cyclophilin B (P23284 34-216): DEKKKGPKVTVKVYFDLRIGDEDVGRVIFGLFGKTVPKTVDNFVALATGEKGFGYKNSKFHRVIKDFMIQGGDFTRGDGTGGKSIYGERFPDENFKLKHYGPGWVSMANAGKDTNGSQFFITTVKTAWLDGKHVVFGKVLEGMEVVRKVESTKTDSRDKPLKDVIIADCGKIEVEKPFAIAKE

Compound: COC(=O)C1Cc2ccccc2N1C(=O)C1CCN(C(=O)Cc2ccc(OC)cc2)CC1 (racemic) [Example 8, N-[N'-(4-methoxyphenylacetyl)piperidyl-4-carbonyl]indoline-2-(R,S)-carboxylic acid methyl ester]
Displacement from CypB-CsA-CN in [%] [1]: 8% | Displacement from CypB-CsA in [%] [2]: 0% | inhibition at 10 µM [3]: 0 to 20%

Compound: COC(=O)C1Cc2ccccc2N1C(=O)Cc1ccc(OC)cc1 (racemic) [Example 9, N-(4-methoxyphenylacetyl)indoline-2-(R,S)-carboxylic acid methyl ester]
Displacement from CypB-CsA-CN in [%] [1]: 37% | Displacement from CypB-CsA in [%] [2]: 39% | inhibition at 10 µM [3]: 0 to 20%

Compound: CC(C)(C)OC(=O)N1c2ccccc2CC1C(=O)Nc1ccncc1 (racemic) [Example 10]
Displacement from CypB-CsA-CN in [%] [1]: 0% | Displacement from CypB-CsA in [%] [2]: -58% | inhibition at 10 µM [3]: 0 to 20% | inhibition [4]: 6%

Compound: CC(C)(C)OC(=O)N1c2ccccc2CC1C(=O)N1CCN(CC(=O)N2CCOCC2)CC1 (racemic) [Example 11, N-Boc-indoline-2-(R,S)-carboxylic acid (piperazinoacetic acid morpholide)amide]
Displacement from CypB-CsA-CN in [%] [1]: 0% | Displacement from CypB-CsA in [%] [2]: -28% | inhibition at 10 µM [3]: 0 to 20% | inhibition [4]: 9%

Compound: COC(=O)[C@H](CCCCN)NC(=O)C1Cc2ccccc2N1C(=O)C1Cc2ccccc2N1 (stereo partly drawn) [Example 4, N-[indoline-2-(R,S)-carbonyl]indoline-2-(R,S)-carboxylic acid [S-(ε-NH2)lysinemethyl ester]amide]
Displacement from CypB-CsA-CN in [%] [1]: -42% | Displacement from CypB-CsA in [%] [2]: 33% | inhibition at 10 µM [3]: 0 to 20% | inhibition [4]: 38%

Compound: C=CC[C@@H]1/C=C(\C)C[C@H](C)C[C@H](OC)[C@H]2O[C@@](O)(C(=O)C(=O)N3CCCC[C@H]3C(=O)O[C@H](/C(C)=C/[C@@H]3CC[C@@H](O)[C@H](OC)C3)[C@H](C)[C@@H](O)CC1=O)[C@H](C)C[C@@H]2OC [FK 506]
blocking of cytokines, like IL-2, IL-4 and IL-5 [5]: blocking of various cytokines, like IL-2, IL-4 and IL-5; also recorded: exhibit the blocking of cytokines, like IL-2, IL-4 and IL-5 | inhibition of gene transcription including the IL-2 gene [6]: inhibit the transcription of a number of genes, including the IL-2 gene | binding affinity to receptor protein FKBP [7]: bind with high affinity

Compound: CO[C@H]1C[C@@H]2CC[C@@H](C)[C@@](O)(O2)C(=O)C(=O)N2CCCC[C@H]2C(=O)O[C@H]([C@H](C)C[C@@H]2CC[C@@H](O)[C@H](OC)C2)CC(=O)[C@H](C)/C=C(\C)[C@@H](O)[C@@H](OC)C(=O)[C@H](C)C[C@H](C)/C=C/C=C/C=C/1C [rapamycin]
blocking of cytokines, like IL-2, IL-4 and IL-5 [5]: exhibit the blocking of cytokines, like IL-2, IL-4 and IL-5

The next lines start with results.

inhibition at 10 µM [3]: 0 to 20%
Compound: CC(C)(C)OC(=O)N1CCC(C(=O)N2c3ccccc3CC2C(=O)N2CCN(CC(=O)N3CCOCC3)CC2)CC1 (racemic) [Example 12, N-[1-Boc-piperidyl-4-carbonyl]indoline-2-(R,S)-carboxylic acid (piperazinoacetic acid morpholide)amide]
Displacement from CypB-CsA-CN in [%] [1]: -25% | Displacement from CypB-CsA in [%] [2]: 8% | inhibition [4]: 5%

inhibition at 10 µM [3]: 0 to 20%
Compound: COC(=O)[C@H](CCCCNC(=O)OC(C)(C)C)NC(=O)C1Cc2ccccc2N1C(=O)C1CCN(C(=O)OC(C)(C)C)CC1 (stereo partly drawn) [Example 1, N-[1-Boc-piperidyl-4-carbonyl]indoline-2-(R,S)-carboxylic acid [S-(N-ε-Boc)lysinemethyl ester]amide]
Displacement from CypB-CsA-CN in [%] [1]: 45% | Displacement from CypB-CsA in [%] [2]: 10% | inhibition [4]: 86%

inhibition at 10 µM [3]: 0 to 20%
Compound: COC(=O)[C@H](CCCCN)NC(=O)C1Cc2ccccc2N1C(=O)C1CCNCC1 (stereo partly drawn) [Example 2, N-[piperidyl-4-carbonyl]indoline-2-(R,S)-carboxylic acid [S-(ε-NH2)lysinemethyl ester]amide]
Displacement from CypB-CsA-CN in [%] [1]: -53% | Displacement from CypB-CsA in [%] [2]: 45% | inhibition [4]: 40%

inhibition at 10 µM [3]: 0 to 20%
Compound: COC(=O)[C@H](CCCCNC(=O)OC(C)(C)C)NC(=O)C1Cc2ccccc2N1C(=O)C1Cc2ccccc2N1C(=O)OC(C)(C)C (stereo partly drawn) [Example 3, N-[1-Boc-indoline-2-(R,S)-carbonyl]indoline-2-(R,S)-carboxylic acid [S-(N-ε-Boc)lysinemethyl ester]amide]
Displacement from CypB-CsA-CN in [%] [1]: 22% | Displacement from CypB-CsA in [%] [2]: 14% | inhibition [4]: 82%

inhibition at 10 µM [3]: 0 to 20%
Compound: COC(=O)[C@H](CCCCNC(=O)OCc1ccccc1)NC(=O)C1Cc2ccccc2N1C(=O)C1Cc2ccccc2N1C(=O)OC(C)(C)C (stereo partly drawn) [Example 5, N-[1-Boc-indoline-2-(R,S)-carbonyl]indoline-2-(R,S)-carboxylic acid [S-(N-ε-Z)lysinemethyl ester]amide]
Displacement from CypB-CsA-CN in [%] [1]: 20% | Displacement from CypB-CsA in [%] [2]: 16% | inhibition [4]: 92%

inhibition at 10 µM [3]: 20 to 40%
Compound: COC(=O)[C@H](CCCCNC(=O)OCc1ccccc1)NC(=O)C1Cc2ccccc2N1C(=O)OC(C)(C)C (stereo partly drawn) [Example 6, 1-Boc-indoline-2-(R,S)-carboxylic acid [S-(N-ε-Z)lysinemethyl ester]amide]
Displacement from CypB-CsA-CN in [%] [1]: 7% | Displacement from CypB-CsA in [%] [2]: 0% | inhibition [4]: 84%

inhibition at 10 µM [3]: 0 to 20%
Compound: COC(=O)[C@H](Cc1ccccc1)NC(=O)C1Cc2ccccc2N1C(=O)OC(C)(C)C (stereo partly drawn) [Example 7, 1-Boc-indoline-2-(R,S)-carboxylic acid (S-phenylalanine methyl ester)amide]
Displacement from CypB-CsA-CN in [%] [1]: 0% | Displacement from CypB-CsA in [%] [2]: 38% | inhibition [4]: 7%

inhibition at 10 µM [3]: 0 to 20%
Compound: COC(=O)[C@H](CCCCNC(=O)OCc1ccccc1)NC(=O)C1Cc2ccccc2N1C(=O)C1CCN(C(=O)Cc2ccc(OC)cc2)CC1 (stereo partly drawn) [Example 13, N-[N'-(4-methoxyphenylacetyl)piperidyl-4-carbonyl]indoline-2-(R,S)-carboxylic acid [S-(N-ε-Z)lysinemethyl ester]amide]
Displacement from CypB-CsA-CN in [%] [1]: -16% | Displacement from CypB-CsA in [%] [2]: 46% | inhibition [4]: 66%
